Consider 18 molecules from patent US9884821B2, “N1-cyclic amine-N5-substituted biguanide derivatives, methods of preparing the same and pharmaceutical composition comprising the same” (IMMUNOMET THERAPEUTICS INC., priority 2013, dated 2018).

SMILES strings stand for the structures. Where a name gives a salt, the structure may show the parent alone. A value given as a limit tells only on which side of the number the result lay.

One assay has as its system AMPK. Nature of the assay: AMPK activation effect (AMPK [pT172] ELISA) in MCF7 cells. Type of assay: cell-based, human. As to conditions: 24 hours; for AMPK activation effect (%) 10 μM / AMPK activation effect (%) 50 μM / AMPK activation effect (%) 5 μM: AMPKα Thr172 phosphorylation relative to untreated cells; for AC150: concentration at which AMPK activation reached 150%. The protocol:
ELISA kit (Invitrogen, Catalog No. KH00651).
MCF7 cells were cultured in a DMEM medium supplemented with 10% fatal bovine serum (commercially available from Gibco Life Technologies (US)). Thereafter, the cultured MCF7 cells were put into a 6-well plate with approximately 5×10^5 cells per well, and cultured in an incubator supplied with 5% CO2. Culture media were treated with the derivatives synthesized in the Examples at concentrations of 5, 10 and 50 uM, and then cultured for 24 hours. […] Subsequently, the cells were lysed according to a method presented in the operation manual of the AMPK [pT172] ELISA kit, and 20 μg of a cell lysate was then yielded through protein assay. Thereafter, the AMPK activation effect was obtained by determining a degree of phosphorylation of a 172nd threonine residue (Thr172) of the AMPKα from the cell lysate according to the method presented in the operation manual of the AMPK [pT172] ELISA kit.

The subject of another assay is HCT116 cells. The assay can be described thus: Effect of inhibiting cancer cell proliferation (MTT) in HCT116 cells. Type of assay: cell-based, human. The conditions noted are these: Homo sapiens, HCT-116, 48 h; for inhibition at 100 µM: read-out: Cell growth inhibition (%) at 100 μM; for inhibition at 25 µM: read-out: Cell growth inhibition (%) at 25 μM. The source says:
HCT116 cells derived from human colorectal cancer were used, and an effect of inhibiting cancer cell proliferation of the biguanide derivative was confirmed by measuring a concentration value (cell growth inhibition concentration, GIC50) at which cell growth was inhibited by 50% using a 3-(4,5-dimethylthiazol-2-yl)-2,5-diphenyltetrazolium bromide (MTT) reagent.
First, HCT116 cells (purchased from the KCLB) were put on a 96-well plate and cultured in a DMEM medium supplemented with 10% fatal bovine serum (commercially available from Gibco Life Technologies (US)) for 16 hours so that approximately 5,000 cells were counted in each well. Subsequently, to obtain the GIC50 value of each compound, the culture media were treated with 100 μM, 25 μM, 6.25 μM, 1.56 μM or 0.39 μM of the compound, and then cultured for 48 hours. In order to determine whether the cells survived after treatment with the compounds, MTT (commercially available from AMRESCO (US)) was added to the culture media which were then cultured for another 3 hours. Formed formazane crystals were dissolved using dimethyl sulfoxide (DMSO) and the absorbance of the resulting solution was measured at 560 nm. After the 48-hour culture, a ratio of a living cell count on a well plate treated with the compounds synthesized in the Examples to a cell count cultured on a well plate not treated with the compound was indicated as cell viability (%) according to the concentration of each treated compound. The cell viability (%) was used to plot a cell viability curve graph and calculate a concentration (GIC50) value of the compound at which the growth was inhibited by 50%, thereby confirming the inhibition effect of cancer cell proliferation.

With `CC1=CCN(C(=N)NC(=N)NCc2ccc(C(F)(F)F)cc2)C1.Cl` [Example 26, N1-(3-methyl)-1,2-dihydropyrrole-N5-(4-trifluoromethyl)benzyl biguanide hydrochloride], in the assay with AMPK, the “AMPK activation effect (%) 10 μM” value turned out to be 443%, the “AMPK activation effect (%) 50 μM” value is reported as 358% and the AC150 turned out to be 0.68 µM. Moreover, in the assay with HCT116 cells, the 50% growth inhibitory concentration (GI50) (in general, the concentration giving 50% growth inhibition) stood at 8.2 µM and the inhibition (usually the change of the read-out against control, counted positive when it falls) at 100 µM stood at 96.7%.
Turning to `CC1CCCC(C)N1C(=N)NC(=N)Nc1ccc(Br)cc1` (stereo not shown) [Example 97, N1-(2,6-dimethyl)piperidine-N5-(4-bromo)phenyl biguanide hydrochloride], in the assay with AMPK, the “AMPK activation effect (%) 5 μM” value was 143%, the “AMPK activation effect (%) 10 μM” value was found to be 233% and the AC150 came out at 4.2 µM. In the assay on HCT116 cells, the GI50 turned out to be 9.1 µM and the inhibition at 25 µM was 100%.
The like results for `CC1CCCC(C)N1C(=N)NC(=N)Nc1cccc(OC(F)(F)F)c1.Cl` (stereo not shown) [Example 90, N1-(2,6-dimethyl)piperidine-N5-(3-trifluoromethoxy)phenyl biguanide hydrochloride] were, in that order, 281%, 317%, 0.8 µM, 3.2 µM and 100%.
In the case of `COc1cc(NC(=N)NC(=N)N2CC=CC2)cc(OC)c1.Cl` [Example 45, N1-1,2-dihydropyrrole-N5-(3,5-dimethoxy)phenyl biguanide hydrochloride], in the assay with AMPK, the “AMPK activation effect (%) 10 μM” value was determined as 202%, the “AMPK activation effect (%) 50 μM” value stood at 299% and the AC150 is 4.8 µM. Also, in the assay on HCT116 cells, the concentration for 50% growth inhibition (GI50) amounted to 107 µM and the inhibition at 100 µM came out at 47.2%.
As for `COc1cc(NC(=N)NC(=N)N2CC=CCC2)cc(OC)c1.Cl` [Example 38, N1-1,2,3,6-tetrahydropyridine-N5-(3,5-dimethoxy)phenyl biguanide hydrochloride], in the assay on AMPK, the “AMPK activation effect (%) 10 μM” value is 97%, the “AMPK activation effect (%) 50 μM” value was 117% and the AC150 is above 50 µM. Besides, in the assay with HCT116 cells, halving of growth (GI50) required 108 µM and the inhibition at 100 µM worked out at 47.8%.
For `CC1=CCN(C(=N)NC(=N)Nc2ccc(OC(F)(F)F)cc2)C1.Cl` [Example 15, N1-(3-methyl)-1,2-dihydropyrrole-N5-(4-trifluoromethoxy)phenyl biguanide hydrochloride], in the assay on AMPK, the “AMPK activation effect (%) 10 μM” value is 554% and the AC150 is 1.6 µM. Besides, in the assay with HCT116 cells, the concentration for 50% growth inhibition (GI50) was determined as 10.1 µM and the inhibition at 100 µM is 99.2%.
Take `CC1CCCC(C)N1C(=N)NC(=N)Nc1ccc(OC(F)(F)F)c(F)c1.Cl` (stereo not shown) [Example 95, N1-(2,6-dimethyl)piperidine-N5-(3-fluoro, 4-trifluoromethoxy)phenyl biguanide]: in the assay with AMPK, the “AMPK activation effect (%) 5 μM” value is reported as 130%, the “AMPK activation effect (%) 10 μM” value is 326% and the AC150 was 3.1 µM. Also, in the assay on HCT116 cells, the GI50 was 2.9 µM and the inhibition at 25 µM was 101%.
The matching figures for `CC1CCCN(C(=N)NC(=N)Nc2ccc(F)cc2)C1.Cl` (stereo not shown) [Example 67, N1-(3-methyl)piperidine-N5-(4-fluoro)phenyl biguanide hydrochloride]: 258%, 427%, 1.6 µM, 9.2 µM and 100%.
`CC1=CCN(C(=N)NC(=N)NCc2ccc(Cl)c(C(F)(F)F)c2)C1.Cl` [Example 27, N1-(3-methyl)-1,2-dihydropyrrole-N5-(4-chloro, 3-trifluoromethyl)benzyl biguanide hydrochloride]: in the assay with AMPK, the “AMPK activation effect (%) 10 μM” value stood at 119%, the “AMPK activation effect (%) 50 μM” value turned out to be 316% and the AC150 stood at 13.5 µM. Further, in the assay with HCT116 cells, it took 33.5 µM to inhibit growth by half (GI50) and the inhibition at 100 µM is 96.6%.
Consider `CC1CCCN(C(=N)NC(=N)Nc2ccc(Br)cc2)C1.Cl` (stereo not shown) [Example 68, N1-(3-methyl)piperidine-N5-(4-bromo)phenyl biguanide hydrochloride], for which, in the assay on AMPK, the “AMPK activation effect (%) 5 μM” value is 52%, the “AMPK activation effect (%) 10 μM” value was 136% and the AC150 was 13.7 µM. In the assay with HCT116 cells, the concentration for 50% growth inhibition (GI50) was found to be 45.3 µM and the inhibition at 25 µM was 29.4%.
Take `Cl.N=C(NCc1ccc(Cl)c(C(F)(F)F)c1)NC(=N)N1CC=CCC1` [Example 58, N1-1,2,3,6-tetrahydropyridine-N5-(4-chloro, 3-trifluoromethyl)benzyl biguanide hydrochloride]: in the assay on AMPK, the “AMPK activation effect (%) 10 μM” value is 500% and the AC150 was 1.8 µM. In addition, in the assay on HCT116 cells, growth was halved (GI50) at 7.9 µM and the inhibition at 100 µM was 98.4%.
As to `Cl.N=C(NC(=N)N1CC=CC1)Nc1ccc(F)cc1` [Example 7, N1-1,2-dihydropyrrole-N5-(4-fluoro)phenyl biguanide hydrochloride], in the assay on AMPK, the “AMPK activation effect (%) 10 μM” value amounted to 94%, the “AMPK activation effect (%) 50 μM” value is recorded as 109% and the AC150 was above 50 µM. Besides, in the assay on HCT116 cells, the 50% growth inhibitory concentration (GI50) is above 100 µM and the inhibition at 100 µM was 19.8%.
The like results for `Cl.N=C(NCc1ccc(C(F)(F)F)cc1)NC(=N)N1CC=CC1` [Example 13, N1-1,2-dihydropyrrole-N5-(4-trifluoromethyl)benzyl biguanide hydrochloride] were, in that order, 135%, 462%, 9.0 µM, 77.1 µM and 57.8%.
In the case of `CC1CCCC(C)N1C(=N)NC(=N)Nc1ccc(Cl)cc1.Cl` (stereo not shown) [Example 96, N1-(2,6-dimethyl)piperidine-N5-(4-chloro)phenyl biguanide hydrochloride], in the assay on AMPK, the “AMPK activation effect (%) 5 μM” value came out at 240%, the “AMPK activation effect (%) 10 μM” value was determined as 395% and the AC150 was 1.8 µM. Also, in the assay with HCT116 cells, the GI50 is 10.4 µM and the inhibition at 25 µM came to 101%.
Take `Cc1cccc(NC(=N)NC(=N)N2CC=CCC2)c1.Cl` [Example 49, N1-1,2,3,6-tetrahydropyridine-N5-(3-methyl)phenyl biguanide hydrochloride]: in the assay with AMPK, the “AMPK activation effect (%) 10 μM” value was determined as 319%, the “AMPK activation effect (%) 50 μM” value was 917% and the AC150 worked out at 1.9 µM. In the assay on HCT116 cells, the concentration for 50% growth inhibition (GI50) was determined as 57 µM and the inhibition at 100 µM stood at 91.8%.
Regarding `CC1CCCN(C(=N)NC(=N)Nc2ccc(F)c(C(F)(F)F)c2)C1.Cl` (stereo not shown) [Example 71, N1-(3-methyl)piperidine-N5-(4-fluoro, 3-trifluoromethyl)phenyl biguanide hydrochloride], in the assay with AMPK (hydrochloride), the “AMPK activation effect (%) 5 μM” value came out at 259%, the “AMPK activation effect (%) 10 μM” value was determined as 430% and the AC150 was found to be 1.6 µM. Moreover, in the assay on HCT116 cells, the concentration for 50% growth inhibition (GI50) amounted to 5.7 µM and the inhibition at 25 µM is 100%.
On to `Cl.N=C(NCc1cccc(C(F)(F)F)c1)NC(=N)N1CC=CCC1` [Example 57, N1-1,2,3,6-tetrahydropyridine-N5-(3-trifluoromethyl)benzyl biguanide hydrochloride], for which, in the assay with AMPK, the “AMPK activation effect (%) 10 μM” value is on record as 279%, the “AMPK activation effect (%) 50 μM” value was found to be 579% and the AC150 came out at 2.7 µM. Moreover, in the assay with HCT116 cells, the GI50 came out at 26.9 µM and the inhibition at 100 µM was 97.8%.
Take `Cl.N=C(NCc1cccc(C(F)(F)F)c1)NC(=N)N1CC=CC1` [Example 12, N1-1,2-dihydropyrrole-N5-(3-trifluoromethyl)benzyl biguanide hydrochloride]: in the assay on AMPK, the “AMPK activation effect (%) 10 μM” value turned out to be 97%, the “AMPK activation effect (%) 50 μM” value worked out at 357% and the AC150 amounted to 13.8 µM. Also, in the assay with HCT116 cells, growth was halved (GI50) at 84.8 µM and the inhibition at 100 µM was 53.8%.
